Active and inactive are the calls of the source. No cut-off for these calls is given here.
Key:
Tobacco mosaic virus [1] = experiment: Antiviral activity against Tobacco mosaic virus (TMV) in compound treated tobacco leaf assessed as growth inhibition at 5 mM at 25 degC for 3 days (16 hr in light) by half-leaf method; format: functional
Tobacco mosaic virus [2] = experiment: Antiviral activity against Tobacco mosaic virus (TMV) in compound treated tobacco leaf assessed as growth inhibition at 25 mM at 25 degC for 3 days (16 hr in light) by half-leaf method; format: functional; design: dose or concentration left out as unconfirmed
Cladosporium herbarum [3] = experiment: Antifungal activity against Cladosporium herbarum assessed as inhibition at 50 nmol in 8 mm disk; format: functional
Cladosporium herbarum [4] = experiment: Antifungal activity against Cladosporium herbarum assessed as inhibition at 1250 nmol in 8 mm disk; format: functional
Cladosporium herbarum [5] = experiment: Antifungal activity against Cladosporium herbarum assessed as inhibition at 10 nmol in 8 mm disk; format: functional
Cladosporium herbarum [6] = experiment: Antifungal activity against Cladosporium herbarum assessed as inhibition at 250 nmol in 8 mm disk; format: functional
Nicotiana tabacum = experiment: Phytotoxicity against Nicotiana tabacum (tobacco) plant at 25 mM; format: organism-based; details: in vivo, 25000 µM

| SMILES | inhibition (Tobacco mosaic virus [1]) | inhibition (Tobacco mosaic virus [2]) | inhibition at 5000 µM (Tobacco mosaic virus [1]) | diameter of the inhibition zone (DIZ) (Cladosporium herbarum [3]) | diameter of the inhibition zone (DIZ) (Cladosporium herbarum [4]) | diameter of the inhibition zone (DIZ) (Cladosporium herbarum [5]) | diameter of the inhibition zone (DIZ) (Cladosporium herbarum [6]) | Activity (Nicotiana tabacum) |
| --- | --- | --- | --- | --- | --- | --- | --- | --- |
| CCC(C)C(=O)O[C@H](CC=C(C)C)C1=CC(=O)c2c(O)ccc(O)c2C1=O (some centres undefined) | inactive | 86.1% |  |  |  |  |  |  |
| CC(C)=CC[C@@H](OC(=O)CC(C)C)C1=CC(=O)c2c(O)ccc(O)c2C1=O |  | 86.1% | 46% |  |  |  |  |  |
| CCC(=O)O[C@H](CC=C(C)C)C1=CC(=O)c2c(O)ccc(O)c2C1=O |  | 99.9% | 86.1% | 11.3 mm | 15.1 mm | 9.1 mm | 15.6 mm |  |
| CC(=O)O[C@H](CC=C(C)C)C1=CC(=O)c2c(O)ccc(O)c2C1=O [ACETYLSHIKONIN] |  | 78.7% | 73.2% | 13 mm | 13.4 mm | 10.1 mm | 13.3 mm |  |
| CC(C)=CC[C@@H](OC(=O)CC(C)(C)O)C1=CC(=O)c2c(O)ccc(O)c2C1=O [BETA-HYDROXYISOVALERYLSHIKONIN] |  |  | 44% | 13.8 mm | 17.6 mm | 9.1 mm | 16 mm | Toxic |
| CC(C)=CCCC1=CC(=O)c2c(O)ccc(O)c2C1=O [DEOXYSHIKONIN] |  | 87.3% | 66.4% |  |  |  |  |  |
| CC(C)=CC[C@@H](OC(=O)C=C(C)C)C1=CC(=O)c2c(O)ccc(O)c2C1=O [DIMETHYLACRYLSHIKONIN] |  | 70.2% | 26% |  |  |  |  |  |
| CC(C)=CC[C@@H](OC(=O)C(C)C)C1=CC(=O)c2c(O)ccc(O)c2C1=O [ISOBUTYLSHIKONIN] |  | 75.5% | 49.5% |  |  |  |  |  |
| CC(C)=CC[C@@H](O)C1=CC(=O)c2c(O)ccc(O)c2C1=O [SHIKONIN] | inactive |  |  | 13.4 mm | 15.9 mm | 9.9 mm | 14.1 mm | Toxic |

Reference: ChEMBL document CHEMBL3046888, “Antiviral and Antifungal Activities of Some Naphthoquinones Isolated from the Roots of Lithospermum erythrorhizon” (J Pestic Sci, 1998)
